Assay [1] has as its system patients suffering from increased low density lipoprotein (LDL) levels. The assay can be described thus: Example 2: blood level effects (cholesterol, HDL, LDL, non-HDL, risk factor, triglycerides) after three months. Conditions: for HDL / LDL / Non-HDL cholesterol / Total cholesterol / Triglycerides: group value; for Risk factor: total cholesterol blood level divided by HDL blood level. The format is in vivo, human. The protocol: Especially, the present invention relates to the present medical formulations for recuperation of vascular walls, lowering low density lipoprotein blood levels, lowering the viscosity of blood, lowering blood pressure, and/or increasing high density lipoprotein levels. Preferably, the present invention relates to the present medical formulation for reducing the risk factor in humans, or patients, at risk of hypercholesterolemia, wherein the risk factor is determined by the total cholesterol blood level divided by the HDL blood level.
(§1) As control, group 1 of 5 patients suffering from increased low density lipoprotein (LDL) levels were treated for three months with a formulation comprising, as daily dose 11.40 mg extract of lovastatin.
(§2) A group 2 of 14 patients suffering from increased low density lipoprotein (LDL) levels were treated for three months with a formulation comprising, as daily dose: • 4.80 mg bark extract of cinnamomum zeylanicum; • 24.20 mg fibre extract of Pinus pinaster; • 24.00 mg bark extract Saccharum officinarum; • 11.40 mg lovastatin; • 1.2 mg leave extract of Taraxacum officinale; • 16 mg leave extract of Camellia sinensis; • 20 mg nicotinamide; • 14 mg 50% alpha tocopherol; • 60 mg coenzyme Q10; • 37.80 mg fish oil comprising 19.2 wt % eicosapentaenoic acid and 12.9 wt % docosahexanoic acid; • 60.00 mg beta-glucan; and • 1 mg cholecalciferol.
(§3) The above ingredients were divided in two capsules for daily intake. The capsules were composed of gelatin. One capsule was taken during breakfast; the other was taken during dinner.

For assay [2] the test system is unchanged. The assay can be described thus: Example 2: blood pressure after three months. The format is in vivo, human. The protocol:
as §1, §2, §3

As to `CC[C@H](C)C(=O)O[C@H]1C[C@@H](C)C=C2C=C[C@H](C)[C@H](CC[C@@H]3C[C@@H](O)CC(=O)O3)[C@H]21` [lovastatin], in assay [1] (change T = 0 to T = 3 months), the “HDL Δ” value is -4.0 mg/dL, the “LDL Δ” value was -23.0 mg/dL, the “Non-HDL cholesterol Δ” value was -28.0 mg/dL and the Risk factor Δ was -0.41. In assay [1] (change T = 0 to T = 3 months), the “Total cholesterol Δ” value was -26.2 mg/dL and the “Triglycerides Δ” value was -19 mg/dL. Also, in assay [1] (T = 0 (before treatment)), the HDL worked out at 72.0 mg/dL, the LDL amounted to 96.2 mg/dL, the Non-HDL cholesterol turned out to be 129.4 mg/dL and the Total cholesterol came to 201.4 mg/dL. In assay [1] (T = 0 (before treatment)), this compound displayed a Triglycerides of 165.8 mg/dL and a Risk factor of 2.91. For the same compound, in assay [1] (T = 3 (three months treatment)), the HDL is 68.0 mg/dL, the LDL was 73.2 mg/dL, the Non-HDL cholesterol was found to be 101.4 mg/dL and the Total cholesterol came out at 175.2 mg/dL. In addition, in assay [1] (T = 3 (three months treatment)), the Triglycerides came out at 146.8 mg/dL and the Risk factor was found to be 2.5. Moreover, the “reduction of risk factor” value in assay [1] (three months treatment, stated as size of reduction) was 0.41. In assay [2] (T = 0 (before treatment)), this compound showed a Diastolic of 79.2 mmHg and a Systolic of 120.0 mmHg. In assay [2] (T = 3 (three months treatment)), this compound yielded a Diastolic of 79.1 mmHg and a Systolic of 130.0 mmHg. In addition, in assay [2] (change T = 0 to T = 3 months), the “Diastolic Δ” value was −0.1 mmHg.

The values above are taken from US9655942B2, “Medical formulation for treating hypercholesterolemia” (priority 2012, dated 2017).
